The text below walks through data of ChEMBL document CHEMBL1132463, “Metabolism-based brain-targeting system for a thyrotropin-releasing hormone analogue” (1999).

SMILES strings stand for the structures. Square brackets hold non-standard residues; d marks the D form. Peptide text beside a SMILES is read from it. * marks the point of attachment. Nicotinoyl(1-Me-1,4-dihydro) = CN1C=CCC(C(=O)*)=C1; X1 = CC(C)CCC(C)C1CCC2C3CC=C4CC(O*)CCC4(C)C3CCC12C; pGlu = O=C1CC[C@@H](C(=O)O)N1

In this assay the test system is Mus musculus. In words: Barbiturate-induced sleeping time in mice after the administration of the compound. It counts as functional.
For the compound `CC(C)CCC(C)C1CCC2C3CC=C4CC(OC(=O)CNC(=O)[C@@H]5CCCN5C(=O)[C@H](CC(C)C)NC(=O)[C@H](CCC(N)=O)NC(=O)[C@@H]5CCCN5C(=O)C5=CN(C)C=CC5)CCC4(C)C3CCC12C` (some centres not stated) ({Nicotinoyl(1-Me-1,4-dihydro)}-PQLPG-X1), the Sleeping time is recorded as 29.2 min. For `CC(C)CCC(C)C1CCC2C3CC=C4CC(OC(=O)CNC(=O)[C@@H]5CCCN5C(=O)[C@H](CC(C)C)NC(=O)[C@H](CCC(N)=O)NC(=O)[C@H](C)NC(=O)[C@H](C)NC(=O)C5=CN(C)C=CC5)CCC4(C)C3CCC12C` (some centres not stated) ({Nicotinoyl(1-Me-1,4-dihydro)}-AAQLPG-X1) the value was 37 min.

Take `CC(C)CCC(C)C1CCC2C3CC=C4CC(OC(=O)CNC(=O)[C@@H]5CCCN5C(=O)[C@H](CC(C)C)NC(=O)[C@H](CCC(N)=O)NC(=O)[C@H](C)NC(=O)[C@@H]5CCCN5C(=O)C5=CN(C)C=CC5)CCC4(C)C3CCC12C` (some centres not stated) ({Nicotinoyl(1-Me-1,4-dihydro)}-PAQLPG-X1): the Sleeping time is on record as 24.3 min. Take `CC(C)CCC(C)C1CCC2C3CC=C4CC(OC(=O)CNC(=O)[C@@H]5CCCN5C(=O)[C@H](CC(C)C)NC(=O)[C@H](CCC(N)=O)NC(=O)[C@H](C)NC(=O)C5=CN(C)C=CC5)CCC4(C)C3CCC12C` (some centres not stated) ({Nicotinoyl(1-Me-1,4-dihydro)}-AQLPG-X1): the Sleeping time is 38 min. On to `CC(C)CCC(C)C1CCC2C3CC=C4CC(OC(=O)CNC(=O)[C@@H]5CCCN5C(=O)[C@H](CC(C)C)NC(=O)[C@H](CCC(N)=O)NC(=O)[C@@H]5CCCN5C(=O)[C@H](C)NC(=O)C5=CN(C)C=CC5)CCC4(C)C3CCC12C` (some centres not stated) ({Nicotinoyl(1-Me-1,4-dihydro)}-APQLPG-X1), for which the Sleeping time worked out at 35 min. For `CC(C)CCC(C)C1CCC2C3CC=C4CC(OC(=O)CNC(=O)[C@@H]5CCCN5C(=O)[C@H](CC(C)C)NC(=O)[C@H](CCC(N)=O)NC(=O)[C@@H]5CCCN5C(=O)[C@@H]5CCCN5C(=O)C5=CN(C)C=CC5)CCC4(C)C3CCC12C` (some centres not stated) ({Nicotinoyl(1-Me-1,4-dihydro)}-PPQLPG-X1) the value was 26.8 min. For `CC(C)C[C@H](NC(=O)[C@@H]1CCC(=O)N1)C(=O)N1CCC[C@H]1C(N)=O` ([pGlu]-Leu-Pro-NH2) the value was 45.5 min.
